Like-named read-outs stand apart in the source and are kept apart here.
How the values were obtained:
[1] = molecular target: T1, pS166-RIPK1 in human PBMC lysates (Homo sapiens, UniProt Q13546); test: Inhibition of pS166-RIPK1 in PBMC lysates (peripheral target engagement); format: in vivo; conditions: for pS166-RIPK1 percent change from baseline: Day15-T24h
T1 construct: Human PBMC are a primary cell type that express endogenous RIPK kinase; endogenous in cells; host or cells: human PBMC isolated from blood of healthy participants
T1 sequence (Q13546 1-671): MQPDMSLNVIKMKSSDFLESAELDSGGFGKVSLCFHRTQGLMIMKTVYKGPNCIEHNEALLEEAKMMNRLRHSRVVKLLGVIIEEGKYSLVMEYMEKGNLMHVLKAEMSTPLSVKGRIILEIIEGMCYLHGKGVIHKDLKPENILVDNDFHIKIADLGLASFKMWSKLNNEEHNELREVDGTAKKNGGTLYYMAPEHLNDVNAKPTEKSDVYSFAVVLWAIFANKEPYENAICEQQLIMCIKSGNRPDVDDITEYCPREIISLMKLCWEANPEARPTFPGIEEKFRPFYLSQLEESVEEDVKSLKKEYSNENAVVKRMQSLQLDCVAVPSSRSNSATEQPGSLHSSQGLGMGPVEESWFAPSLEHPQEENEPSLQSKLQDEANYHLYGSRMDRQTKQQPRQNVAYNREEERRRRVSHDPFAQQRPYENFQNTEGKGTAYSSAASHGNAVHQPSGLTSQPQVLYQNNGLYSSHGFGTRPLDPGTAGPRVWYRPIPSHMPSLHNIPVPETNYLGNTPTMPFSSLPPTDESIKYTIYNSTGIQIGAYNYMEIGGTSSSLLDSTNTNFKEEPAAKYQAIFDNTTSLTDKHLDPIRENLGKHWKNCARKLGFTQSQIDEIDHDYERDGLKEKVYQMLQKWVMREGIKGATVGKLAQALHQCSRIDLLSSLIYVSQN
Source text: Activity of RIPK1 when stimulated can be detected by an increase in autophosphorylation at serine 166 in the RIPK1 protein. Human PBMC are a primary cell type that express endogenous RIPK kinase. Therefore, the ability of Compound 1 to inhibit RIPK1 kinase activity, as measured by the inhibition of pS166-RIPK1 in prepared PBMC lysates isolated from blood samples, was investigated to assess the peripheral target engagement; pS166-RIPK1 levels in human PBMC lysates and percentage of change from baseline were calculated. In Part 1a study, six blood samples (at pre-dose, at 1, 3, 5, 8 hours on Day 1, and at 24 hours on Day 2) for pS166-RIPK1 level were collected per participant. In Part 2 study, blood samples were collected at timepoint (predose/baseline, D7 and D14 T0 (prior to dosing), at the followings timepoints at D14: T1h, T3H, T6H, T8h, then at D15/T24H and D16/T48H. Interquartile range (IQR: Q1-Q3) and geometric mean were added to the usual descriptive statistics.
Levels of pS166-RIPK1 and percentage of change from baseline were summarized descriptively by dose level group and time point. PD population includes participants included in the safety population with no major or critical deviations related to IMP and/or pharmacodynamic (PD) measurements, for whom the PD data are considered sufficient and interpretable will be included in the pharmacodynamic population. Scatterplots were provided for pS166-RIPK1 data versus PK plasma concentration in the PK/PD population. For each participant, the percent change compared to their baseline was evaluated at multiple timepoints up to 24 hours in Part 1a and up to 48 hours in Part 2.
The amount of phosphorylation at serine 166 in RIPK1 protein (pS166-RIPK1) was measured in PBMC lysates prepared from blood samples. Variability in baseline values between individuals was observed across the treatment groups. For each participant, the percent change compared to their baseline was evaluated at multiple timepoints. A negative value for percent change indicates an inhibition of phosphorylation of RIPK1 at-serine166 (pS166-RIPK1).

[2] = 6-month rat toxicology study (NOAEL exposure); format: in vivo
[3] = 20 mg QD vs 6-month rat toxicology study

SMILES: CC(C)(C(=O)N1CCOc2c(C#N)cncc2C1)C(F)F [Compound 1, 4-(3,3-difluoro-2,2-dimethyl-propanoyl)-3,5-dihydro-2H-pyrido[3,4-f] [1,4]oxazepine-9-carbonitrile]
- Median inhibition of pS166-RIPK1 ([1]; Part 1a 20 mg, 1 hr post dose): 90.43%
- Median inhibition of pS166-RIPK1, peak ([1]; Part 1a 20 mg, 5 hrs): 96.63%
- Median inhibition of pS166-RIPK1, maintained ([1]; Part 1a 20 mg, over 24 hours): greater than 94%
- Peak median inhibition of pS166-RIPK1 ([1]; Part 1a 30 mg, 3 hr, one replicate): 91.48%
- Median inhibition of pS166-RIPK1 ([1]; Part 1a 30 mg, 24 hours post dose, one replicate): 80.16%
- Peak median inhibition of pS166-RIPK1 ([1]; Part 1a 40 mg, 1 hr post dose, 4 participants): 86.69%
- Median inhibition of pS166-RIPK1 ([1]; Part 1a, all dose groups (10, 20, 30, 40 mg), 1 hour up to 5 hours post dose): greater than 80%
- pS166-RIPK1 percent change from baseline ([1]; Part 2, 15 mg BID): −80.29%
- pS166-RIPK1 percent change from baseline ([1]; Part 2, 20 mg BID): −97.76%
- Inhibition of pS166-RIPK1 ([1]; Part 2, all dose level groups (10 mg QD to 20 mg BID), Ctrough Day 7 up to 24 hours post-last dosing): ~90%
- Emax at 10 mg ([1]; Part 2 Day 14, 10 mg QD, 6 hours post-last morning dose, n=5, read-out: Median inhibition of pS166-RIPK1, maximal effect): 99%
- Emax at 15 mg ([1]; Part 2 Day 14, 15 mg BID, 6 hours post-last morning dose, n=7, read-out: Median inhibition of pS166-RIPK1, maximal effect): 92.8%
- Emax at 20 mg ([1]; Part 2 Day 14, 20 mg BID, 8 hours post-last morning dose, n=3, read-out: Median inhibition of pS166-RIPK1, maximal effect): 99.2%
- Emax at 20 mg ([1]; Part 2 Day 14, 20 mg QD, 6 hours post-last morning dose, n=4, read-out: Median inhibition of pS166-RIPK1, maximal effect): 96.5%
- EC90 ([1]; in vivo in PBMC): 38 nM
- Human Cmax and AUCtau, fold lower than exposure at NOAEL ([2]; 15 mg BID vs 6-month rat toxicology study): 10 fold
- Human AUC0-24 h, fold lower than AUC0-24 at rat NOAEL ([2]; 20 mg BID vs female rats): < 8 fold
- Human Cmax, fold lower than Cmax at rat NOAEL ([2]; 20 mg BID vs female rats): < 10 fold
- Human AUC0-24, fold lower than exposure at NOAEL [2, 3]: 17 fold
- Human Cmax, fold lower than exposure at NOAEL [2, 3]: 15 fold
- Cmax ([2]; rat, in vivo, female rats, end of Week 26, 6-month study): 13.1 µM
- AUC(0-t) ([2]; rat, in vivo, female rats, end of Week 26, 6-month study, read-out: AUC0-24 at the NOAEL): 126 µM·h

Source: patent publication US20240100065A1, “METHODS FOR TREATING RECEPTOR-INTERACTING PROTEIN KINASE 1-MEDIATED DISEASES” (Genzyme Corporation, priority 2022, published 2024)
